According to US11071300B2, “Pesticidally active pyrazole derivatives” (SYNGENTA PARTICIPATIONS AG, priority 2017, dated 2021):

Tests used:
Type in all cases: in vivo
Diabrotica Balteata = test: Diabrotica balteata (corn root worm) maize sprout test; details: 96 h, application rate 200 ppm, maize sprouts sprayed, L2 larvae, 4 days after infestation, read-out: control (mortality and growth inhibition)
Method: Diabrotica Balteata, (Corn Root Worm)
Maize sprouts, placed on an agar layer in 24-well microtiter plates were treated with aqueous test solutions prepared from 10′000 ppm DMSO stock solutions by spraying. After drying, the plates were infested with L2 larvae (6 to 10 per well). The samples were assessed for mortality and growth inhibition in comparison to untreated samples 4 days after infestation.

Plutella xylostella = Plutella xylostella (diamond back moth) artificial diet test; details: 120 h, application rate 200 ppm, artificial diet, L2 larvae, 5 days after infestation, read-out: control (mortality and growth inhibition)
Method: Plutella xylostella (Diamond Back Moth):
24-well microtiter plates with artificial diet were treated with aqueous test solutions prepared from 10′000 ppm DMSO stock solutions by pipetting. After drying, the plates were infested with L2 larvae (10 to 15 per well). The samples were assessed for mortality and growth inhibition in comparison to untreated samples 5 days after infestation.

Euschistus heros = Euschistus heros (neotropical brown stink bug) soybean leaf test; details: 120 h, application rate 200 ppm, soybean leaves sprayed, N2 nymphs, 5 days after infestation, read-out: control (mortality and growth inhibition)
Method: Euschistus heros (Neotropical Brown Stink Bug):
Soybean leaves on agar in 24-well microtiter plates were sprayed with aqueous test solutions prepared from 10′000 ppm DMSO stock solutions. After drying the leaves were infested with N2 nymphs. The samples were assessed for mortality and growth inhibition in comparison to untreated samples 5 days after infestation.

Thrips tabaci = Thrips tabaci (onion thrips) leaf disc test; details: foliar, 144 h, application rate 200 ppm, sunflower leaf discs sprayed, mixed ages, 6 days after infestation, read-out: control (mortality)
Method: Thrips tabaci (Onion Thrips):
(§1) Sunflower leaf discs were placed on agar in 24-well microtiter plates and sprayed with aqueous test solutions prepared from 10′000 ppm DMSO stock solutions. After drying the leaf discs were infested with a thrips population of mixed ages. The samples were assessed for mortality 6 days after infestation.

Myzus persicae = Myzus persicae (green peach aphid) leaf disc test; details: foliar, 144 h, application rate 200 ppm, sunflower leaf discs sprayed, mixed ages, 6 DAT, read-out: control (mortality)
Method: Myzus persicae (Green Peach Aphid):
Sunflower leaf discs were placed on agar in a 24-well microtiter plate and sprayed with test solutions at an application rate of 200 ppm. After drying, the leaf discs were infested with an aphid population of mixed ages. After an incubation period of 6 DAT, samples were checked for mortality.

Tetranychus urticae = Tetranychus urticae (two-spotted spider mite) leaf disc test; details: foliar, 192 h, application rate 200 ppm, bean leaf discs sprayed, 8 days after infestation, read-out: control (mortality on mixed population, mobile stages)
Method: Tetranychus urticae (Two-Spotted Spider Mite):
as §1, with “Bean” for “Sunflower”, “discs” for “discs were placed”, “were” for “and”, “mite” for “thrips”, “on mixed population (mobile stages) 8” for “6”

Spodoptera littoralis = Spodoptera littoralis (Egyptian cotton leaf worm) leaf disc test; details: foliar, 72 h, application rate 200 ppm, cotton leaf discs sprayed, L1 larvae, 3 days after infestation, read-out: control (at least one of mortality, anti-feedant effect, growth inhibition)
In short: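 Five first-instar larvae per disc were placed on dried, sprayed cotton leaf discs held on agar. Test solutions were aqueous, made from 10′000 ppm DMSO stocks. At day 3, control was counted when mortality, feeding deterrence or growth inhibition exceeded the untreated discs.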

Cn1nc(OS(=O)(=O)C(F)(C(F)(F)F)C(F)(F)F)c(C(F)(F)F)c1-n1cc(-c2ccc(Cl)c(C(=O)N(C(=O)C(C)(C)C)C3(C#N)CC3)c2)cn1 [Compound 59, [5-[4-[4-chloro-3-[(1-cyanocyclopropyl)-(2,2-dimethylpropanoyl)carbamoyl]phenyl]pyrazol-1-yl]-1-methyl-4-(trifluoromethyl)pyrazol-3-yl] 1,1,1,2,3,3,3-heptafluoropropane-2-sulfonate]
≥ 80%: mortality at 200 ppm (Diabrotica Balteata) | mortality at 200 ppm (Plutella xylostella) | mortality at 200 ppm (Euschistus heros) | mortality at 200 ppm (Thrips tabaci) | mortality at 200 ppm (Myzus persicae) | mortality at 200 ppm (Tetranychus urticae) | percent control (mortality, anti-feedant effect or growth inhibition) at 200 ppm (Spodoptera littoralis)

COCN(C(=O)c1cc(-c2cnn(-c3c(C(F)(F)F)c(OS(=O)(=O)C(F)(C(F)(F)F)C(F)(F)F)nn3C)c2)ccc1Cl)C1(C#N)CC1 [Compound 48, [5-[4-[4-chloro-3-[(1-cyanocyclopropyl)-(methoxymethyl)carbamoyl]phenyl]pyrazol-1-yl]-1-methyl-4-(trifluoromethyl)pyrazol-3-yl] 1,1,1,2,3,3,3-heptafluoropropane-2-sulfonate]
≥ 80%: mortality at 200 ppm (Diabrotica Balteata) | mortality at 200 ppm (Plutella xylostella) | mortality at 200 ppm (Euschistus heros) | mortality at 200 ppm (Thrips tabaci) | mortality at 200 ppm (Myzus persicae) | mortality at 200 ppm (Tetranychus urticae) | percent control (mortality, anti-feedant effect or growth inhibition) at 200 ppm (Spodoptera littoralis)

CCN(C(=O)c1cc(-c2cc(-c3c(C(F)(F)F)c(OS(=O)(=O)C(F)(C(F)(F)F)C(F)(F)F)nn3C)no2)ccc1Cl)C1CC1 [Compound 35, [5-[5-[4-chloro-3-[cyclopropyl(ethyl)carbamoyl]phenyl]isoxazol-3-yl]-1-methyl-4-(trifluoromethyl)pyrazol-3-yl] 1,1,1,2,3,3,3-heptafluoropropane-2-sulfonate]
≥ 80%: mortality at 200 ppm (Diabrotica Balteata) | mortality at 200 ppm (Plutella xylostella) | mortality at 200 ppm (Euschistus heros) | mortality at 200 ppm (Thrips tabaci) | mortality at 200 ppm (Myzus persicae) | mortality at 200 ppm (Tetranychus urticae) | percent control (mortality, anti-feedant effect or growth inhibition) at 200 ppm (Spodoptera littoralis)

COCC(=O)N(C(=O)c1cc(-c2cnn(-c3c(C(F)(F)F)c(OS(=O)(=O)C(F)(C(F)(F)F)C(F)(F)F)nn3C)c2)ccc1Cl)C1(C#N)CC1 [Compound 62, [5-[4-[4-chloro-3-[(1-cyanocyclopropyl)-(2-methoxyacetyl)carbamoyl]phenyl]pyrazol-1-yl]-1-methyl-4-(trifluoromethyl)pyrazol-3-yl] 1,1,1,2,3,3,3-heptafluoropropane-2-sulfonate]
≥ 80%: mortality at 200 ppm (Diabrotica Balteata) | mortality at 200 ppm (Plutella xylostella) | mortality at 200 ppm (Euschistus heros) | mortality at 200 ppm (Thrips tabaci) | mortality at 200 ppm (Myzus persicae) | mortality at 200 ppm (Tetranychus urticae) | percent control (mortality, anti-feedant effect or growth inhibition) at 200 ppm (Spodoptera littoralis)

Cn1nc(OS(=O)(=O)C(F)(C(F)(F)F)C(F)(F)F)c(C(F)(F)F)c1-c1cc(-c2ccc(Cl)c(C(=O)NC3(C#N)CC3)c2)on1 [Compound 36, [5-[5-[4-chloro-3-[(1-cyanocyclopropyl)carbamoyl]phenyl]isoxazol-3-yl]-1-methyl-4-(trifluoromethyl)pyrazol-3-yl] 1,1,1,2,3,3,3-heptafluoropropane-2-sulfonate]
≥ 80%: mortality at 200 ppm (Diabrotica Balteata) | mortality at 200 ppm (Plutella xylostella) | mortality at 200 ppm (Euschistus heros) | mortality at 200 ppm (Thrips tabaci) | mortality at 200 ppm (Myzus persicae) | mortality at 200 ppm (Tetranychus urticae) | percent control (mortality, anti-feedant effect or growth inhibition) at 200 ppm (Spodoptera littoralis)

Cn1nc(OS(=O)(=O)C(F)(F)C(F)(F)Cl)c(C(F)(F)F)c1-n1cc(-c2ccc(Cl)c(C(=O)NC3CC3)c2)cn1 [Compound 9, [5-[4-[4-chloro-3-(cyclopropylcarbamoyl)phenyl]pyrazol-1-yl]-1-methyl-4-(trifluoromethyl)pyrazol-3-yl] 2-chloro-1,1,2,2-tetrafluoro-ethanesulfonate]
≥ 80%: mortality at 200 ppm (Diabrotica Balteata) | mortality at 200 ppm (Plutella xylostella) | mortality at 200 ppm (Euschistus heros) | mortality at 200 ppm (Thrips tabaci) | mortality at 200 ppm (Myzus persicae) | mortality at 200 ppm (Tetranychus urticae) | percent control (mortality, anti-feedant effect or growth inhibition) at 200 ppm (Spodoptera littoralis)

Cn1nc(OS(=O)(=O)C(F)(C(F)(F)F)C(F)(F)F)c(C(F)(F)F)c1-n1cc(-c2ccc(Cl)c(C(=O)NC3CC3)c2)cn1 [Compound 5, [5-[4-[4-chloro-3-(cyclopropylcarbamoyl)phenyl]pyrazol-1-yl]-1-methyl-4-(trifluoromethyl)pyrazol-3-yl] 1,1,1,2,3,3,3-heptafluoropropane-2-sulfonate]
≥ 80%: mortality at 200 ppm (Diabrotica Balteata) | mortality at 200 ppm (Plutella xylostella) | mortality at 200 ppm (Euschistus heros) | mortality at 200 ppm (Thrips tabaci) | mortality at 200 ppm (Myzus persicae) | mortality at 200 ppm (Tetranychus urticae) | percent control (mortality, anti-feedant effect or growth inhibition) at 200 ppm (Spodoptera littoralis)

Cn1nc(OS(=O)(=O)C(F)(C(F)(F)F)C(F)(F)F)c(C(F)(F)F)c1-n1cc(-c2ccc(Cl)c(C(=O)N(CC#N)C3(C#N)CC3)c2)cn1 [Compound 49, [5-[4-[4-chloro-3-[(1-cyanocyclopropyl)-(cyanomethyl)carbamoyl]phenyl]pyrazol-1-yl]-1-methyl-4-(trifluoromethyl)pyrazol-3-yl] 1,1,1,2,3,3,3-heptafluoropropane-2-sulfonate]
≥ 80%: mortality at 200 ppm (Diabrotica Balteata) | mortality at 200 ppm (Plutella xylostella) | mortality at 200 ppm (Euschistus heros) | mortality at 200 ppm (Thrips tabaci) | mortality at 200 ppm (Myzus persicae) | mortality at 200 ppm (Tetranychus urticae) | percent control (mortality, anti-feedant effect or growth inhibition) at 200 ppm (Spodoptera littoralis)

CCC(=O)N(C(=O)c1cc(-c2cnn(-c3c(C(F)(F)F)c(OS(=O)(=O)C(F)(C(F)(F)F)C(F)(F)F)nn3C)c2)ccc1Cl)C1(C#N)CC1 [Compound 54, [5-[4-[4-chloro-3-[(1-cyanocyclopropyl)-propanoyl-carbamoyl]phenyl]pyrazol-1-yl]-1-methyl-4-(trifluoromethyl)pyrazol-3-yl] 1,1,1,2,3,3,3-heptafluoropropane-2-sulfonate]
≥ 80%: mortality at 200 ppm (Diabrotica Balteata) | mortality at 200 ppm (Plutella xylostella) | mortality at 200 ppm (Euschistus heros) | mortality at 200 ppm (Thrips tabaci) | mortality at 200 ppm (Myzus persicae) | mortality at 200 ppm (Tetranychus urticae) | percent control (mortality, anti-feedant effect or growth inhibition) at 200 ppm (Spodoptera littoralis)
